Measurements: US20050192256A1, “Methods of using vitamin D compounds in the treatment of patients undergoing hemodialysis” (priority 2003, published 2005)

Tests used:
[1] = Vitamin D therapy and K/DOQI guidelines on hospitalization outcomes in hemodialysis patients (cohort, negative binomial regression); assay type: in vivo, human; conditions: for annual hospitalizations (HOSP) and hospital days (DAYS), NoD group compared with treated group: NoD (N=3007) vs P (N=1318) or C (N=1432), therapy at least 180 days
Description: An examination was made of the relationship between Vitamin D therapy and K/DOQI guidelines on hospitalization outcomes, as a surrogate for morbidity, in hemodialysis (HD) patients. The cohort consisted of U.S. patients who were new to HD during the period from January 1999 to December 2001 and who received paricalcitol (P), calcitriol (C) or no vitamin D (NoD) therapy for at least 180 days. To allow for patients to be stabilized after initiation to Vitamin D or NoD therapy, baseline laboratory values were defined over the initial 90-180 days of the observation period; mean values over this baseline period were assessed relative to K/DOQI guidelines. Patients with baseline laboratory measurements within K/DOQI guidelines served as reference groups. An interaction term was created to examine the relationship between Vitamin D therapy and the K/DOQI baseline assessment. Outcomes were defined by annual hospitalizations (HOSP) and hospital days (DAYS). Analysis was performed using negative binomial regression modeling.

[2] = Association of Vitamin D therapy, serum PTH and CaxP product quintiles with hospitalization outcomes in hemodialysis patients (cohort, negative binomial regression); assay type: in vivo, human; conditions: for association between quintiles of PTH, CaxP and hospital outcomes (morbidity): interaction of laboratory quintiles and Vitamin D therapy
Description: Elevated PTH and CaxP levels have been considered risk factors for increased mortality and morbidity (M&M) in HD patients. […] To date, the relationship between M&M, PTH, CaxP product and the impact of Vitamin D therapy, however, has not been addressed. Thus, by quintiles, an analysis was made of the baseline distribution of serum iPTH, and CaxP product levels in HD patients who received paricalcitol (P), calcitriol (C) or no Vitamin D (NoD) therapy in regard to their relationship with hospitalization outcomes as defined by hospitalizations per year (HOSP) and hospital days per year (DAYS). The cohort consisted of 11,340 adult patients new to HD between January 1999 and November 2001; there were 2,316 patients treated with P; 2,299 patients treated with C and 6,725 patients NoD.

[3] = recent data; cited from earlier work

C=C1/C(=C\C=C2/CCC[C@]3(C)[C@@H]([C@H](C)CCCC(C)(C)O)CC[C@@H]23)C[C@@H](O)C[C@@H]1O [calcitriol, 1α,25-dihydroxy-vitamin D3]
annual hospitalizations (HOSP) and hospital days (DAYS), NoD group compared with treated group ([1]; p<0.05): significantly more HOSP and DAYS
increase in DAYS for patients outside of K/DOQI guidelines for Phos ([1]; interaction assessment, reference: patients within K/DOQI guidelines, p<0.05): 40%
DAYS in the 2nd quintile of CaxP compared to the reference group (3rd quintile) ([2]; human, in vivo): significantly fewer DAYS
association between quintiles of PTH, CaxP and hospital outcomes (morbidity) [2]: no significant associations

C[C@H](/C=C/[C@H](C)C(C)(C)O)[C@H]1CC[C@H]2/C(=C/C=C3C[C@@H](O)C[C@H](O)C3)CCC[C@]12C [paricalcitol, 19-nor-1α,3β,25-trihydroxy-9,10-secoergosta-5(Z); 7(E),22(E)-triene]
difference in outcomes for patients within K/DOQI guidelines compared to those outside of guidelines ([1]; HOSP and DAYS): no significant difference
annual hospitalizations (HOSP) and hospital days (DAYS), NoD group compared with treated group ([1]; p<0.05): significantly more HOSP and DAYS
hospitalization outcomes, ranking among groups ([1]; P vs C vs NoD): fewest hospitalization outcomes
fewer DAYS (hospital days per year) compared to C group ([2]; 2,316 patients P vs 2,299 C, p=0.0036): 72%
fewer DAYS (hospital days per year) compared to NoD group ([2]; 2,316 patients P vs 6,725 NoD, p<0.0001): 90%
association between quintiles of PTH, CaxP and hospital outcomes (morbidity) [2]: not associated with morbidity
survival in HD patients [3]: associated with survival benefit
